Experiments:
[1] = test system: MYC mRNA, MV4:11 (AML) or Raji (Burkitt's lymphoma) cells; experiment: cMyc RNA quantification assay (QuantiGene); type: cell-based; settings: MV4:11 or Raji cells, 4 h, MYC mRNA normalized to DMSO
Description: cMyc RNA Quantification Assay (QuantiGene® Assay):
MV4:11 (AML) or Raji (Burkitt's lymphoma) cells were seeded in a 96-well plate and incubated in the presence of various concentrations of compounds for 4 h. Relative mRNA levels were quantitated by using QuantiGene 2.0 assay (Affymetrix) according to the manufacturer's recommendation. Signals were detected by using an Envision plate reader (Perkin-Elmer). Biological duplicates were averaged and normalized to vehicle (DMSO) control to calculate percent MYC mRNA levels.

[2] = test system: IL-6 secretion, THP-1 cells; experiment: Cell-based IL-6 quantification assay (ELISA, Mesoscale) in LPS-stimulated THP-1 cells; settings: Homo sapiens, LPS 4 μg/mL, 16 h, ELISA value/CellTiter-Glo ratio
Description: Cell-Based IL-6 Quantification Assay (ELISA, Mesoscale Assay):
100,000 THP-1 cells were seeded in RPMI1640-10% FBS in 96-well plates. LPS (E. Coli Invitrogen) in RPMI-10% FBS at a final concentration of 4 μg/mL was added to the wells and the cells are then incubated in the presence of various concentrations of compounds for 16 h. Plates are spun ([…], 5 min), an aliquot of 25 uL supernatant is transferred in to an ELISA plate (Mesoscale technology, MSD) and the detection of IL-6 is performed using manufacturer's instructions. The amount of cells in each well is assessed using CellTiter-Glo® (Promega). The ratio of ELISA value/CellTiter-Glo value is used to calculate the percent of inhibition of IL-6 secretion.

[3] = target: T1, BRD4(BD1) (Homo sapiens, UniProt O60885); experiment: BRD4 AlphaLisa binding assay; settings: BRD4(BD1) 30 nM, biotinylated H4-tetraacetyl peptide 200 nM, read-out: AS IC50
T1 construct: His; made in house
Description: IC50 Measurements for Inhibitors Using BRD4 AlphaLisa Binding Assay
Specifically, in a 384 well ProxiPlate BRD4(BD1) (30 nM final) was combined with peptide (200 nM final) in 40 mM HEPES (pH 7.0), 40 mM NaCl, 1 mM DTT, 0.01% (w/v) BSA, and 0.008% (w/v) Brij-35 either in the presence of DMSO (final 1.2% DMSO) or compound dilution series in DMSO. After 20 minute incubation at room temperature Alpha streptavidin donor beads and AlphaLisa anti-Flag acceptor beads were added to a final concentration of 10 ug/mL each. After three hours equilibration plates were read on an Envision instrument and IC50s calculated using a four parameter non-linear curve fit.

Row | SMILES | EC50 [1] [nM] | IC50 [2] [nM] | IC50 [3] [nM]
1 | Cc1noc2c1-c1ccc(-c3cnn(C)c3)cc1N(c1ccc(C#N)cc1)CC2CCO (stereo not drawn) [Compound 138, 4-(4-(2-hydroxyethyl)-1-methyl-8-(1-methyl-1H-pyrazol-4-yl)-4H-benzo[b]isoxazolo[4,5-d]azepin-6(5H)-yl)benzonitrile] | 310 | 340 | 80
2 | Cc1noc2c1-c1ccc(-c3cnn(C)c3)cc1N(c1ccc(C#N)cc1)CC2 [Compound 110] | 780 | > 1000 | 80
3 | Cc1noc2c1-c1ccc(-c3ccc(N)nc3)cc1N(c1ccc(C#N)cc1)CC2 [Compound 116] | 550 | 380 | 60
